Here are results for three molecules from patent US12398121B2 (Nuvation Bio Inc., priority 2018, dated 2025).

Where two headings read alike, the source gives them in different places.

The target in this test is Human recombinant PARP1 (Homo sapiens, UniProt P09874). The test can be described thus: RBC HotSpot PARP1 radioisotope-based filter binding assay. It counts as biochemical. Here is the method:
The following methods are for evaluating the in vitro biology properties of the test articles. • a. RBC HotSpot Poly(ADP-ribose) Polymerases 1 (PARP1) and Poly(ADP-ribose) Polymerases 2 (PARP2) Assays: The assay principle is radioisotope-based filter binding assay where incorporation of radioisotope-labeled NAD^+ into the substrate captured on filter is detected after washout free NAD^+. Data were analyzed using Excel and GraphPad Prism software for IC50 curve fits. Each assay was conducted with PJ34 as a positive control. • i. PARP1 assay: Human recombinant PARP1 at a final concentration of 2.5 nM was combined with histone H4 (20 μM) and test articles at various concentrations in reaction buffer (50 mM Tris-HCL, pH 8.0, 50 mM NaCl, 10 mM MgCl2, 1 mM DTT, 1% DMSO, and 20 μg/mL activated DNA). The solution was inoculated for 20 min at room temperature and the reaction initiated by adding [adenylate-^32P]-Nicotinamide Adenine Dinucleotide, ^32P-NAD^+ at a final concentration of 10 μM. After incubation for 2 hour at room temperature, the reaction mixture was filtered and washed with 0.75% phosphoric acid for radioactivity detection. • ii. PARP2 assay: Human recombinant PARP2 at a final concentration of 2.5 nM was combined with histone H3 (20 μM) and test articles at various concentrations in reaction buffer (50 mM Tris-HCL, pH 8.0, 50 mM NaCl, 10 mM MgCl2, 1 mM DTT, 1% DMSO, and 20 μg/mL activated DNA). The solution was inoculated for 20 min at room temperature and the reaction was initiated by adding [adenylate-^32P]-Nicotinamide Adenine Dinucleotide, ^32P-NAD^+ at a final concentration of 10 μM. After incubation for 2 hour at room temperature, the reaction mixture was filtered and washed with 0.75% phosphoric acid for radioactivity detection. • b. AR binding assay: AR in LNCaP cytosol was used for determining the binding affinity of test articles and the reference compound—progesterone (Sigma, Cat: E2785, St. Louis, MO). IC50s were determined using 8 concentrations/compound. Cytosol was plated at 200 μg/well (100 μL) into a 96-well conical polypropylene plate (Agilent, Cat: 5042-1385, Santa Clara, CA) and mixed with 3 μL of test compound. After adding 100 μL of ^3H-methyltrienolone (PerkinElmer, Cat: NET590250UC, San Jose, CA), the plate was sealed and shaken at 300 rpm at 4° C. for 24 hours. Post incubation, 100 μL of radioligand adsorption buffer containing 10 mM Tris-HCl, pH 7.4; 1.5 mM EDTA; 1 mM DTT; 0.25% charcoal; 0.0025% dextran was added to individual well. Plate was shaken for 15 min at 4′C followed by centrifugation at 3000 rpm for 30 min at 4° C. 150 μL of supernatant was transferred into scint-tube (PerkinElmer, Cat: 6000192) and mixed with 2 mL of Ultima Gold Cocktail (PerkinElmer, Cat: 6013329). Radioactivity was counted using a TriCarb 2910 TR scintillation counter (PerkinElmer). Inhibition of the radioactivity by test articles were calculated using the equation below: % Inhibition=(1−(Assay well−Average_LC)/(Average_HC−Average_LC))×100%.

Where [1] appears, read: 2.5 nM enzyme, histone H4, 10 μM 32P-NAD+, read-out: PARP1 IC50.

Human recombinant PARP1, sequence (P09874 whole entry): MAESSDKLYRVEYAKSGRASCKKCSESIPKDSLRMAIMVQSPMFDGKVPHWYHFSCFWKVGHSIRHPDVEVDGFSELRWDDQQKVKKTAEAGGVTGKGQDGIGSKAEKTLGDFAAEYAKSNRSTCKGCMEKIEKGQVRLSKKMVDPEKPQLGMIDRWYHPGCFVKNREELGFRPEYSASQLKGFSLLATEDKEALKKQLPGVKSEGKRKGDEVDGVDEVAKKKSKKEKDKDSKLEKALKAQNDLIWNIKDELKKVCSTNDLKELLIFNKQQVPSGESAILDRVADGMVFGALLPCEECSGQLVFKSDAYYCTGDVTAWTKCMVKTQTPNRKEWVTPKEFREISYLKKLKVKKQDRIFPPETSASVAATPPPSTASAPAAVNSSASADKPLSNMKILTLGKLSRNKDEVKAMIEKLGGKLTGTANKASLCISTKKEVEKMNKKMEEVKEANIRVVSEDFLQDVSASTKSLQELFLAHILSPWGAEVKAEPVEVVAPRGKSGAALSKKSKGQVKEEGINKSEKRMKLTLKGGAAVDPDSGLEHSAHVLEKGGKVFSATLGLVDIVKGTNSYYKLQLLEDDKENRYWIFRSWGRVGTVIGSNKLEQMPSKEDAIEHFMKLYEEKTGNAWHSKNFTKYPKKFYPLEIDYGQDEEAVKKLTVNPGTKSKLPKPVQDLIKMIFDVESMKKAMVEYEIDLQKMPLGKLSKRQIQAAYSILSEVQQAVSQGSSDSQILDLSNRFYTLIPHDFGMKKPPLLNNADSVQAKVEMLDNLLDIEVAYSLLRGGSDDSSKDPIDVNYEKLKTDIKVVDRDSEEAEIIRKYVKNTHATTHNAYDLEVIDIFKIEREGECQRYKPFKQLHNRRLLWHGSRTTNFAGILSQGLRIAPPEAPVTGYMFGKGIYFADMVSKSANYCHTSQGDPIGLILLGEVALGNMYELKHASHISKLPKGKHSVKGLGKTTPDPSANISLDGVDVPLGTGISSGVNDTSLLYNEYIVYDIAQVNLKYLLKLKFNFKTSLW

Broadly, the IC50 is the point on the concentration scale where inhibition reaches its midpoint. In the case of `CCC(=C(c1ccc(O)cc1)c1ccc(OCCN2CCN(C(=O)c3cc(Cc4n[nH]c(=O)c5ccccc45)ccc3F)CC2)cc1)c1ccccc1` [Compound 2.14, 4-(4-fluoro-3-(4-(2-(4-(1-(4-hydroxyphenyl)-2-phenylbut-1-enyl)phenoxy)ethyl)piperazine-1-carbonyl)benzyl)pthalazin-1(2H)-one], under setting [1], the IC50 was found to be 274 nM.
Consider `CN(CCCCCC(=O)N1CCN(C(=O)c2cc(Cc3n[nH]c(=O)c4ccccc34)ccc2F)CC1)CCOc1ccc(C(=O)c2c(-c3ccc(O)cc3)sc3cc(O)ccc23)cc1` [Compound 2.4, 4-(4-fluoro-3-(4-(6-((2-(4-(6-hydroxy-2-(4-hydroxyphenyl)benzo[b]thiophene-3-carbonyl)phenoxy)ethyl)(methyl)amino)hexanoyl)piperazine-1-carbonyl)benzyl)phthalazin-1(2H)-one], for which the IC50 under setting [1] was found to be 4 nM.
In the case of `CC1(C)C(=O)N(c2ccc(C#N)c(C(F)(F)F)c2)C(=S)N1c1ccc(C(=O)NCCCCCC(=O)N2CCN(C(=O)c3cc(Cc4n[nH]c(=O)c5ccccc45)ccc3F)CC2)c(F)c1` [Compound 1.1, 4-(3-(4-cyano-3-(trifluoromethyl)phenyl)-5,5-dimethyl-4-oxo-2-thioxoimidazolidin-1-yl)-2-fluoro-N-(6-(4-(2-fluoro-5-((4-oxo-3,4-dihydrophthalazin-1-yl)methyl)benzoyl)piperazin-1-yl)-6-oxohexyl)benzamide], the IC50 is 2 nM.
